Each compound was assayed against ASK1 (Apoptosis Signal-Regulating Kinase 1) (Homo sapiens (Human), UniProt Q99683) (assay: ASK1 (Apoptosis Signal-Regulating Kinase 1) TR-FRET Kinase Assay (Biochemical IC50)). Conditions: TR-FRET, biotin-MBP substrate, 20 min pre-incubation, ATP added as 300 μM solution.
Sequence of ASK1 (Apoptosis Signal-Regulating Kinase 1) (Q99683 649-946): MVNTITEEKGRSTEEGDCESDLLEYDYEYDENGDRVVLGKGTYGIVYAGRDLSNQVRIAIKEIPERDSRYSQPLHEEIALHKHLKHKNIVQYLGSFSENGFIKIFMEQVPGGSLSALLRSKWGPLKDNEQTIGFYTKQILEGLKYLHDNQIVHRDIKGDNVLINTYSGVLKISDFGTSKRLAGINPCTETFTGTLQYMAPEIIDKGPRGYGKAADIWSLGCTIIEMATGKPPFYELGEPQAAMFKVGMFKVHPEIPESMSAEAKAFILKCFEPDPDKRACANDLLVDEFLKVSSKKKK
O=C(Nc1cccc(-c2nncn2C2CC2)c1)c1cc(-c2ccc(C3CC3)cc2)ccn1 [Example 129, N-(3-(4-cyclopropyl-4H-1,2,4-triazol-3-yl)phenyl)-4-(4-cyclopropylphenyl)picolinamide] gave an IC50 of 22 nM.
With C[C@@H](O)[C@H](C)n1cnnc1-c1cccc(NC(=O)c2cc(-c3ccc(C4CC4)nc3)ccn2)n1 [Example 247, 6-cyclopropyl-N-(6-(4-((2S,3R)-3-hydroxybutan-2-yl)-4H-1,2,4-triazol-3-yl)pyridin-2-yl)-3,4′-bipyridine-2′-carboxamide] the IC50 was 10 nM.
With Nc1ccc(-c2ccnc(C(=O)Nc3cccc(-c4nncn4C4CC4)c3)c2)cn1 [Example 22, 6-amino-N-(3-(4-cyclopropyl-4H-1,2,4-triazol-3-yl)phenyl)-3,4′-bipyridine-2′-carboxamide] the IC50 was 9 nM.
Compound C[C@@H](c1ccccc1)n1cnnc1-c1cccc(NC(=O)c2cccc(-n3cnc(C4CC4)c3)c2)n1 [Example 217, (S)-3-(4-cyclopropyl-1H-imidazol-1-yl)-N-(6-(4-(1-phenylethyl)-4H-1,2,4-triazol-3-yl)pyridin-2-yl)benzamide] has an IC50 of 14 nM.
COC[C@H](C)n1cnnc1-c1cccc(NC(=O)c2cc(-c3ccc(C4CC4)nc3)ccn2)n1 [Example 234, (S)-6-cyclopropyl-N-(6-(4-(1-methoxypropan-2-yl)-4H-1,2,4-triazol-3-yl)pyridin-2-yl)-3,4′-bipyridine-2′-carboxamide] was tested, and the IC50 was 8 nM.
Cc1cn(-c2ccnc(C(=O)Nc3cccc(-c4nncn4C4CC4)n3)c2)cn1 [Example 159, N-(6-(4-cyclopropyl-4H-1,2,4-triazol-3-yl)pyridin-2-yl)-4-(4-methyl-1H-imidazol-1-yl)picolinamide] showed an IC50 of 3 nM.
CCS(=O)(=O)c1ccc(-c2ccnc(C(=O)Nc3cccc(-c4nncn4C4CC4)c3)c2)cc1 [Example 117, N-(3-(4-cyclopropyl-4H-1,2,4-triazol-3-yl)phenyl)-4-(4-(ethylsulfonyl)phenyl)picolinamide] gave an IC50 of 12 nM.
For O=C(Nc1cccc(-c2nncn2C2CC2)c1)c1cc(-c2nnc(C3CC3)s2)ccn1 [Example 270, 4-(5-cyclopropyl-1,3,4-thiadiazol-2-yl)-N-(3-(4-cyclopropyl-4H-1,2,4-triazol-3-yl)phenyl)picolinamide], the IC50 was 107 nM.
CN1CCc2ncc(-c3ccnc(C(=O)Nc4cccc(-c5nncn5C5CC5)c4)c3)cc2C1 [Example 173, N-(3-(4-cyclopropyl-4H-1,2,4-triazol-3-yl)phenyl)-4-(6-methyl-5,6,7,8-tetrahydro-1,6-naphthyridin-3-yl)picolinamide] was tested, and the IC50 was 21 nM.
In the case of Cc1cn(-c2ccnc(C(=O)Nc3cccc(-c4nncn4C4CC4)c3)c2)cn1 [Example 42, N-(3-(4-cyclopropyl-4H-1,2,4-triazol-3-yl)phenyl)-4-(4-methyl-1H-imidazol-1-yl)picolinamide], the IC50 is reported as 11 nM.
O=C(Nc1cccc(-c2nncn2C2CC2)c1)c1cc(-c2cccnc2)cc(C(F)(F)F)n1 [Example 124, N-(3-(4-cyclopropyl-4H-1,2,4-triazol-3-yl)phenyl)-6′-(trifluoromethyl)-3,4′-bipyridine-2′-carboxamide] gave an IC50 of 422 nM.
Work on Cc1ccc(-n2cnc(C3CC3)c2)cc1C(=O)Nc1cccc(-c2nncn2C2CC2)n1 [Example 197, 5-(4-cyclopropyl-1H-imidazol-1-yl)-N-(6-(4-cyclopropyl-4H-1,2,4-triazol-3-yl)pyridin-2-yl)-2-methylbenzamide] yielded an IC50 of 47 nM.
Work on Cc1cnc(C(=O)Nc2cccc(-c3nncn3C3CC3)c2)cc1-c1ccc(C2CC2)nc1 [Example 250, 6-cyclopropyl-N-(3-(4-cyclopropyl-4H-1,2,4-triazol-3-yl)phenyl)-5′-methyl-3,4′-bipyridine-2′-carboxamide] yielded an IC50 of 8 nM.
In the case of Cc1ccc(C(=O)Nc2cccc(-c3nncn3C3CC3)n2)cc1-n1cnc(C2CC2)c1 [Example 200, 3-(4-cyclopropyl-1H-imidazol-1-yl)-N-(6-(4-cyclopropyl-4H-1,2,4-triazol-3-yl)pyridin-2-y1)-4-methylbenzamide], the IC50 is reported as 11 nM.
For CN(C)c1ccc(-c2ccnc(C(=O)Nc3cccc(-c4nncn4C4CC4)c3)c2)cn1 [Example 91, N-(3-(4-cyclopropyl-4H-1,2,4-triazol-3-yl)phenyl)-6-(dimethylamino)-3,4′-bipyridine-2′-carboxamide], the IC50 was 18 nM.
O=C(Nc1cccc(-c2nncn2C2CC2)c1)c1cc(N2CCCC(O)C2)ccn1 (centres unmarked) [Example 174, N-(3-(4-cyclopropyl-4H-1,2,4-triazol-3-yl)phenyl)-4-(3-hydroxypiperidin-1-yl)picolinamide] gave an IC50 of 93 nM.
Work on COC[C@H](C)n1cnnc1-c1cccc(NC(=O)c2cc(-c3ccc(C4CC4)nc3)ccn2)c1 [Example 232, (S)-6-cyclopropyl-N-(3-(4-(1-methoxypropan-2-yl)-4H-1,2,4-triazol-3-yl)phenyl)-3,4′-bipyridine-2′-carboxamide] yielded an IC50 of 17 nM.
O=C(Nc1cccc(-c2nncn2C2CC2)c1)c1cc(-c2cnccn2)ccn1 [Example 87, N-(3-(4-cyclopropyl-4H-1,2,4-triazol-3-yl)phenyl)-4-(pyrazin-2-yl)picolinamide] showed an IC50 of 69 nM.
For CS(=O)(=O)N1CCN(c2ccnc(C(=O)Nc3cccc(-c4nncn4C4CC4)c3)c2)CC1 [Example 137, N-(3-(4-cyclopropyl-4H-1,2,4-triazol-3-yl)phenyl)-4-(4-(methylsulfonyl)piperazin-1-yl)picolinamide], the IC50 was 31 nM.
Cc1cc(C(=O)Nc2cccc(-c3nncn3C3CC3)n2)cc(-n2cnc(C3CC3)c2)c1 [Example 209, 3-(4-cyclopropyl-1H-imidazol-1-yl)-N-(6-(4-cyclopropyl-4H-1,2,4-triazol-3-yl)pyridin-2-yl)-5-methylbenzamide] was tested, and the IC50 was 7 nM.
Cc1ncn(-c2cccc(C(=O)Nc3cccc(-c4nncn4[C@@H](C)C(F)(F)F)n3)c2)c1C [Example 216, (S)-3-(4,5-dimethyl-1H-imidazol-1-yl)-N-(6-(4-(1,1,1-trifluoropropan-2-yl)-4H-1,2,4-triazol-3-yl)pyridin-2-yl)benzamide] was tested, and the IC50 was 8 nM.
With Cc1noc(-c2ccnc(C(=O)Nc3cccc(-c4nncn4C4CC4)c3)c2)n1 [Example 253, N-(3-(4-cyclopropyl-4H-1,2,4-triazol-3-yl)phenyl)-4-(3-methyl-1,2,4-oxadiazol-5-yl)picolinamide] the IC50 was 3490 nM.
CNS(=O)(=O)c1ccc(-c2ccnc(C(=O)Nc3cccc(-c4nncn4C4CC4)c3)c2)cc1 [Example 98, N-(3-(4-cyclopropyl-4H-1,2,4-triazol-3-yl)phenyl)-4-(4-(N-methylsulfamoyl)phenyl)picolinamide] gave an IC50 of 7 nM.
For CC(C)(O)c1ccc(-c2cccc(C(=O)Nc3cccc(-c4nncn4C4CC4)n3)c2)cn1 [Example 204, N-(6-(4-cyclopropyl-4H-1,2,4-triazol-3-yl)pyridin-2-yl)-3-(6-(2-hydroxypropan-2-yl)pyridin-3-yl)benzamide], the IC50 was 17 nM.
O=C(Nc1cccc(-c2nncn2C2CC2)c1)c1cc(-c2cnc3ccccc3c2)cc(C(F)(F)F)n1 [Example 125, N-(3-(4-cyclopropyl-4H-1,2,4-triazol-3-yl)phenyl)-4-(quinolin-3-yl)-6-(trifluoromethyl)picolinamide] gave an IC50 of 1450 nM.
Compound Cc1cnc(C(=O)Nc2cccc(-c3nncn3C3CC3)n2)cc1-c1ccc(C2CC2)nc1 [Example 215, 6-cyclopropyl-N-(6-(4-cyclopropyl-4H-1,2,4-triazol-3-yl)pyridin-2-yl)-5′-methyl-3,4′-bipyridine-2′-carboxamide] has an IC50 of 30 nM.
